Measured values as given in US10774052B2, “Heteroaryl compounds and uses thereof” (Celgene CAR LLC, priority 2013, dated 2020).

How the values were obtained:
[1] = system: pFGFR4 in MDA-MB-453 cells; assay: FGFR4 signaling, pFGFR4 (MDA); Western blot (Method A), MSD (Method B), ELISA (Method C); format: cell-based; settings: Homo sapiens, Method B (MSD) for signaling EC50 determination
Protocol: The MDA-MB-453 protein concentrations were determined by a BCA Assay (Pierce, Rockford, Ill.). A sample of 50-100 μg of each lysate was separated by a 4-12% gradient (SDS-PAGE (Invitrogen)), transferred to a nitrocellulose membrane (Biorad, Hercules, Calif.), and probed with specific antibodies. Phospho-protein signals were quantitated using Odyssey Infrared Imaging (Li-Cor Biosciences).
To assess phospho-FGFR signaling, the blots were probed with anti-Phospho-FGFR (Y653/Y654) and total anti-FGFR antibodies. The phospho-FGFR signal was normalized to total FGFR expression for each sample.

pFGFR4 in Huh7 cells = assay: FGFR4 signaling, pFGFR4 (Huh); MSD (Method B); format: cell-based; settings: Homo sapiens, Huh-7; Huh7 cells; read-out: Signaling EC50 (nM) pFGFR4 (Huh)

Question: Which results are given for `C=CC(=O)NC1CCCCC1Nc1ncc2c(n1)N(C)C(=O)N(c1cc(OC)cc(OC)c1Cl)C2` (racemic) [Compound I-76]?
Answer: EC50 ([1]; MDA-MB-453, MDA-MB-453 cells): 501 to 999 nM; EC50 (pFGFR4 in Huh7 cells): > 1000 nM

Question: For `C=CC(=O)NC1CCCCC1Nc1ncc2c(n1)N(CC(F)F)C(=O)N(c1c(Cl)c(OC)cc(OC)c1Cl)C2` (racemic) [Compound I-105], which EC50 ([1]; MDA-MB-453, MDA-MB-453 cells) is on record?
Answer: 101 to 500 nM

Question: And the EC50 (pFGFR4 in Huh7 cells)?
Answer: 101 to 500 nM

Question: Which EC50 ([1]; MDA-MB-453, MDA-MB-453 cells) does the source give for `C=CC(=O)NC1CCCCC1Nc1ncc2c(n1)N(CCF)C(=O)N(c1c(Cl)c(OC)cc(OC)c1Cl)C2` (racemic) [Compound I-106] here?
Answer: 101 to 500 nM

Question: What about the EC50 (pFGFR4 in Huh7 cells) of the same compound?
Answer: 101 to 500 nM

Question: How did the EC50 ([1]; MDA-MB-453, MDA-MB-453 cells) turn out when `C=CC(=O)NC1CCCCC1Nc1ncc2c(n1)N(CC(F)F)C(=O)N(c1cc(OC)cc(OC)c1Cl)C2` (racemic) [Compound I-107] was run?
Answer: 501 to 999 nM

Question: What about the EC50 (pFGFR4 in Huh7 cells) of the same compound?
Answer: > 1000 nM

Question: For `C=CC(=O)NC1CCCCC1Nc1ncc2c(n1)N(CCF)C(=O)N(c1cc(OC)cc(OC)c1Cl)C2` (racemic) [Compound I-111], which EC50 ([1]; MDA-MB-453, MDA-MB-453 cells) is on record?
Answer: 501 to 999 nM

Question: And the EC50 (pFGFR4 in Huh7 cells)?
Answer: > 1000 nM

Question: Which results are given for `C=CC(=O)NC1CC=CCC1Nc1ncc2c(n1)N(C)C(=O)N(c1c(Cl)c(OC)cc(OC)c1Cl)C2` (racemic) [Compound I-113]?
Answer: EC50 ([1]; MDA-MB-453 cells): 101 to 500 nM; EC50 (pFGFR4 in Huh7 cells): 101 to 500 nM

Question: For `C=CC(=O)NC1CN(C)CC1Nc1ncc2c(n1)N(C)C(=O)N(c1c(Cl)c(OC)cc(OC)c1Cl)C2` (racemic) [Compound I-138], which EC50 ([1]; MDA-MB-453, MDA-MB-453 cells) is on record?
Answer: 101 to 500 nM

Question: What about the EC50 (pFGFR4 in Huh7 cells) of the same compound?
Answer: 101 to 500 nM

Question: What does the source list for `C=CC(=O)NC1CN(C(C)=O)CC1Nc1ncc2c(n1)N(C)C(=O)N(c1c(Cl)c(OC)cc(OC)c1Cl)C2` (racemic) [Compound I-139]?
Answer: EC50 ([1]; MDA-MB-453 cells): 101 to 500 nM; EC50 (pFGFR4 in Huh7 cells): 101 to 500 nM

Question: How did the EC50 ([1]; MDA-MB-453 cells) turn out when `C=CC(=O)Nc1ccccc1Nc1ncc2c(n1)N(C)C(=O)N(c1cc(OC)cc(OC)c1)C2` [Compound I-5] was run?
Answer: 101 to 500 nM

Question: And the EC50 (pFGFR4 in Huh7 cells)?
Answer: 101 to 500 nM

Question: `C=CC(=O)Nc1cc(N2CCN(CCOC)CC2)ccc1Nc1ncc2c(n1)N(Cc1cccc(NC(=O)CC)c1)C(=O)N(c1cc(OC)cc(OC)c1)C2` [Compound I-9] was tested. Which EC50 ([1]; MDA-MB-453 cells) did it give?
Answer: < 100 nM

Question: What about the EC50 (pFGFR4 in Huh7 cells) of the same compound?
Answer: 101 to 500 nM

Question: Which EC50 ([1]; MDA-MB-453, MDA-MB-453 cells) does the source give for `C=CC(=O)Nc1cc(N(C)CCOC)ccc1Nc1ncc2c(n1)N(Cc1ccccc1)C(=O)N(c1cc(OC)cc(OC)c1)C2` [Compound I-13] here?
Answer: 101 to 500 nM

Question: And the EC50 (pFGFR4 in Huh7 cells)?
Answer: 101 to 500 nM

Question: Which results are given for `C=CC(=O)Nc1cc(N(C)CCOC)ccc1Nc1ncc2c(n1)N(C)C(=O)N(c1cc(OC)cc(OC)c1)C2` [Compound I-21]?
Answer: EC50 ([1]; MDA-MB-453 cells): < 100 nM; EC50 (pFGFR4 in Huh7 cells): < 100 nM

Question: Which results are given for `C=CC(=O)Nc1ccccc1Nc1ncc2c(n1)N(Cc1ccc(F)cc1)C(=O)N(c1c(Cl)c(OC)cc(OC)c1Cl)C2` [Compound I-25]?
Answer: EC50 ([1]; MDA-MB-453 cells): < 100 nM; EC50 (pFGFR4 in Huh7 cells): 101 to 500 nM

Question: Which results are given for `C=CC(=O)Nc1ccccc1Nc1ncc2c(n1)N(Cc1cccc(N)c1)C(=O)N(c1c(Cl)c(OC)cc(OC)c1Cl)C2` [Compound I-26]?
Answer: EC50 ([1]; MDA-MB-453 cells): < 100 nM; EC50 (pFGFR4 in Huh7 cells): < 100 nM

Question: What does the source list for `C=CC(=O)Nc1ccccc1Nc1ncc2c(n1)N(CC(O)CO)C(=O)N(c1cc(OC)cc(OC)c1)C2` (centres unmarked) [Compound I-33]?
Answer: EC50 ([1]; MDA-MB-453 cells): 101 to 500 nM; EC50 (pFGFR4 in Huh7 cells): > 1000 nM

Question: For `C=CC(=O)Nc1ccccc1Nc1ncc2c(n1)N(C1CCCN(C(=O)OC(C)(C)C)C1)C(=O)N(c1cc(OC)cc(OC)c1)C2` (centres unmarked) [Compound I-36], which EC50 ([1]; MDA-MB-453 cells) is on record?
Answer: 101 to 500 nM

Question: What about the EC50 (pFGFR4 in Huh7 cells) of the same compound?
Answer: 101 to 500 nM

Question: `C=CC(=O)Nc1cc(C)ccc1Nc1ncc2c(n1)N(C)C(=O)N(c1cc(OC)cc(OC)c1)C2` [Compound I-41] was tested. Which EC50 ([1]; MDA-MB-453 cells) did it give?
Answer: 101 to 500 nM

Question: And the EC50 (pFGFR4 in Huh7 cells)?
Answer: 101 to 500 nM

Question: Which results are given for `C=CC(=O)Nc1cc(C(F)(F)F)ccc1Nc1ncc2c(n1)N(C)C(=O)N(c1cc(OC)cc(OC)c1)C2` [Compound I-42]?
Answer: EC50 ([1]; MDA-MB-453 cells): 101 to 500 nM; EC50 (pFGFR4 in Huh7 cells): < 100 nM

Question: With `C=CC(=O)Nc1ccccc1Nc1ncc2c(n1)N(C1CCCNC1)C(=O)N(c1cc(OC)cc(OC)c1)C2` (centres unmarked) [Compound I-43] as the compound, how does the EC50 ([1]; MDA-MB-453 cells) read?
Answer: 501 to 999 nM

Question: And the EC50 (pFGFR4 in Huh7 cells)?
Answer: > 1000 nM

Question: With `C=CC(=O)Nc1ccccc1Nc1ncc2c(n1)N(Cc1cccnc1)C(=O)N(c1cc(OC)cc(OC)c1)C2` [Compound I-44] as the compound, how does the EC50 ([1]; MDA-MB-453 cells) read?
Answer: < 100 nM

Question: What about the EC50 (pFGFR4 in Huh7 cells) of the same compound?
Answer: < 100 nM

Question: How did the EC50 ([1]; MDA-MB-453 cells) turn out when `C=CC(=O)Nc1ccccc1Nc1ncc2c(n1)N(CC#N)C(=O)N(c1cc(OC)cc(OC)c1)C2` [Compound I-48] was run?
Answer: 101 to 500 nM

Question: And the EC50 (pFGFR4 in Huh7 cells)?
Answer: 101 to 500 nM

Question: How did the EC50 ([1]; MDA-MB-453 cells) turn out when `C=CC(=O)Nc1ccc(C(F)(F)F)cc1Nc1ncc2c(n1)N(C)C(=O)N(c1cc(OC)cc(OC)c1)C2` [Compound I-50] was run?
Answer: 101 to 500 nM

Question: And the EC50 (pFGFR4 in Huh7 cells)?
Answer: 101 to 500 nM
